Source: ChEMBL document CHEMBL1144507, “Synthesis and antifungal activity of (Z)-5-arylidenerhodanines” (2007)
≈ marks a conversion by molar mass, not a printed value.

Experiments:
Nannizzia gypsea = test: Antifungal activity against Microsporum gypseum C115 after 48 hrs; type: functional
Trichophyton rubrum = test: Antifungal activity against Trichophyton rubrum C113 after 48 hrs; type: functional
Trichophyton benhamiae = test: Antifungal activity against Trichophyton mentagrophytes ATCC 9972 after 48 hrs; type: functional, Arthroderma benhamiae; conditions: ATCC 9972, 48 h
Candida albicans = test: Antifungal activity against Candida albicans ATCC 10231 after 48 hrs; type: functional; conditions: ATCC 10231, 48 h
Saccharomyces cerevisiae = test: Antifungal activity against Saccharomyces cerevisiae ATCC 9763 after 48 hrs; type: functional; conditions: ATCC 9763, 48 h
Cryptococcus neoformans = test: Antifungal activity against Cryptococcus neoformans ATCC 32264 after 48 hrs; type: functional; conditions: ATCC 32264, 48 h
Aspergillus niger = test: Antifungal activity against Aspergillus niger ATCC 9029 after 48 hrs; type: functional; conditions: ATCC 9029, 48 h
Aspergillus fumigatus = test: Antifungal activity against Aspergillus fumigatus ATCC 26934 after 48 hrs; type: functional; conditions: ATCC 26934, 48 h
Aspergillus flavus = test: Antifungal activity against Aspergillus flavus ATCC 9170 after 48 hrs; type: functional; conditions: ATCC 9170, 48 h

MIC (Nannizzia gypsea) | MIC (Trichophyton rubrum) | MIC (Trichophyton benhamiae) | MIC (Candida albicans) | MIC (Saccharomyces cerevisiae) | MIC (Cryptococcus neoformans) | MIC (Aspergillus niger) | MIC (Aspergillus fumigatus) | MIC (Aspergillus flavus) | Compound
62.5 µg/mL (≈ 244 µM) | 62.5 µg/mL (≈ 244 µM) | 62.5 µg/mL (≈ 244 µM) | 250 µg/mL (≈ 978 µM) | 250 µg/mL (≈ 978 µM) | 15.6 µg/mL (≈ 61 µM) | 250 µg/mL (≈ 978 µM) | 125 µg/mL (≈ 489 µM) | 125 µg/mL (≈ 489 µM) | O=C1NC(=S)S/C1=C\c1ccc(Cl)cc1
> 250 µg/mL | > 250 µg/mL | > 250 µg/mL | > 250 µg/mL | > 250 µg/mL | > 250 µg/mL | > 250 µg/mL | > 250 µg/mL | > 250 µg/mL | O=C1NC(=S)S/C1=C\c1ccc2c(c1)OCO2
> 250 µg/mL | > 250 µg/mL | > 250 µg/mL | > 250 µg/mL | > 250 µg/mL | > 250 µg/mL | > 250 µg/mL | > 250 µg/mL | > 250 µg/mL | O=C1NC(=S)S/C1=C\[n+]1ccccc1
